We go through 5 molecules from US20130122127A1, “Extract of Coptidis Rhizoma and novel use thereof in treating respiratory disease” (AHN-GOOK PHARMACEUTICAL CO., LTD., priority 2008, published 2013).

One assay deals with male guinea pig. Description: Antitussive activity, citric acid-induced cough in guinea pig. In kind it is in vivo. To be noted: oral 50 mg/kg, 0.2M citric acid. Here is the method: In order to measure antitussive activity of Coptidis Rhizoma extracts of Examples 1-1 to 1-3, experiment was conducted using Tanaka et al. method (Motomu Tanaka and Kei Maruyama., J. Pharmacol. Sci. 93, 465˜470, 2003., Daoui, Cognon, Naline et., Am. J. Respir. Crit. Care. Med. 158, 42˜48, 1998) in the following procedure.
A test drug was orally administered to a male guinea pig (6-weeks age, Sam tako BioKorea), and after 1 hour, the guinea pig was put in a plethysmograph chamber (Buxco, U.S.A.), and then, a cough inducer, citric acid (Sigma) was nebulized to induce cough. As positive control, theobromine (Sigma) which is used as an antitussive was used. And, the guinea pig was exposed to 0.2M citric acid for 10 minutes, and the number of coughs occurred was measured for 15 minutes.
In order to measure antitussive activities of 5 sub-fractions prepared in the above Example 1-4, experiment for antitussive activity was conducted by the same method as Experiment 3-2, of which results are presented in the following Table 7. […]

The subject of a further assay is male mouse. Description: Expectorant activity, phenol red secretion method in mouse. In kind it is in vivo. On the procedure:
In order to measure expectorant activities of Coptidis Rhizoma extracts of the Examples 1-1 to 1-3, experiment was conducted using Engler et al. method ([…]. Pharmacol. Moth. 11, 151 157, 1984, Bao-quin Lin et., Pulmonary Pharmacology & Therapeutics 21, 259 263, 2008.) in the following procedure. A positive control drug (ambroxol, Sigma) and test drugs (Coptidis Rhizoma extract of Examples 1-1 to 1-3) were orally administered to a male mouse (8-weeks age, Sam tako BioKorea), and after 30 minutes, 500 mg/kg of phenol red was intraperitoneally injected (phenol red was dissolved in saline). After 30 minutes, the mouse was anesthetized with diethyl ether, exsanguinated by cutting the abdominal aorta, and then the whole trachea was resected. […] In order to evaluate expectorant activities of the combined extract and single extract prepared in the Example 2 (2-1 to 2-11), experiment was conducted by the same method as described in [Experiment method] of Experiment 3-1, using Engler, et al. method ([…]. Pharmacol. Moth. 11, 151 157, 1984., Bao-quin Lin et., Pulmonary Pharmacology & Therapeutics 21, 259 263, 2008.), of which results are shown in FIG. 2.

Assay [1] has as its system OVA-sensitized Balb/c mouse. Put plainly: Murine asthma model: airway hyper-responsiveness (AHR) to methacholine. It counts as in vivo. As to conditions: 30 mg/kg oral, Day 14-20. On the procedure: (§1) And, for evaluation, examination of airway hyper-responsiveness (AHR) for methacholine, examination of IgE value in blood plasma, examination of the number of cells and the distribution of white blood cells in bronchoalveolar lavage fluid (BALF), observation of pulmonary tissue, and RT-PCR (IL-1β, IL-4, IL-13r2a) were conducted.
(§2) To a Balb/c mouse (18˜21 g, Orientbio Inc.), an ovalbumin (OVA, Sigma) solution prepared for intraperitoneal injection was intraperitoneally administered in an amount of 500 ul (20 ug as OVA) per one mouse at Day 0 and Day 7, and it was sensitized with a solution prepared for OVA inhalation using a nebulizer (NE-U17, OMRON Co. Ltd, Japan) and then, the prepared 5% OVA solution was inhaled everyday for 30 minutes from Day 14 to Day 20. As positive control drug, 30 mg/kg of montelukast sodium was used, and all the experiment materials were used in an amount of 200 mg/kg. And, positive control drug and the experiment materials were orally administered everyday one hour before OVA inhalation for 7 days of from Day 14 to Day 20 after sensitization, and then, experiments were conducted by the following evaluation items.
24 hours after final inhalation of OVA (at Day 21), the mouse was put in a whole body plethysmograph (BUXCO, USA), each 0.4 ml of methacholine solutions of concentrations of 0, 10 and 20 mg/ml were taken to introduce in an aerosol, and inhaled to the mouse respectively for 3 minutes. And, Penh were measured for 4 minutes from the inhalation time, and the average value was set as Penh (enhanced pause) at corresponding dosage of methacholine.

In another assay the test system is immunoglobulin E (IgE). Description: Murine asthma model: IgE value in blood plasma (ELISA). It counts as in vivo, mouse. As to conditions: Day 21, 30 mg/kg oral. On the procedure: as §1
(§3) To a Balb/c mouse (18˜21 g, Orientbio Inc.), an ovalbumin (OVA, Sigma) solution prepared for intraperitoneal injection was intraperitoneally administered in an amount of 500 ul (20 ug as OVA) per one mouse at Day 0 and Day 7, and it was sensitized with a solution prepared for OVA inhalation using a nebulizer (NE-U17, OMRON Co. Ltd, Japan) and then, the prepared 5% OVA solution was inhaled everyday for 30 minutes from Day 14 to Day 20. As positive control drug, 30 mg/kg of montelukast sodium was used, and all the experiment materials were used in an amount of 200 mg/kg. […]
For the animal measured according to 1), about 0.05 ml of blood was collected by orbital blood sampling and centrifuged, and the obtained plasma was divided into two parts and diluted to 1:10 to examine immunoglobulin E (IgE) value in plasma through IgE enzyme linked immunosorbent assay (ELISA; IgE ELISA kit for mouse, ME-151, SHIBAYAGI Co., Ltd., JAPAN).
On the technique in general: An ELISA detects its analyte on a solid surface through an enzyme-linked reagent.

The subject of assay [2] is neutrophils and eosinophils in BALF. Description: Murine asthma model: number of cells in bronchoalveolar lavage fluid (BALF). In kind it is in vivo, mouse. As to conditions: Day 22, 30 mg/kg oral. On the procedure:
as §1, §3
To the animals whose blood was sampled according to 2), sodium pentothal (50 mg/kg) was injected intraperitoneally to anesthetize it. […] For the suspension, the numbers of total leucocytes, neutrophils, eosinophils and lymphocytes were measured using automated hematology analyzers (Advia 120 coulter counter, BAYER, Germany).

Another assay relates to pulmonary tissue. Put plainly: Murine asthma model: observation of pulmonary tissue. It counts as in vivo, mouse. To be noted: score 1=No, 2=slight, 3=thin, 4=moderate, 5=thick; 30 mg/kg oral. On the procedure:
as §1, §2
The left lung fixed with a nipper was taken off and fixed with a 10% formalin solution for one day, and then, paraffin-penetrated tissue using a tissue processor was cut to a thickness of 3-4 um using a microtome to make tissue fragments. […]

A further assay relates to IL-1β. Put plainly: Murine asthma model: RT-PCR of lung tissue, IL-1β. To be noted: band density divided by actin density, 30 mg/kg oral. It counts as in vivo, mouse. Here is the method:
as §1, §3
(§4) Right pulmonary tissue was rapidly taken off and stored at −80° C. before experiment. RNA was separated from the tissue using RNA-Bee (Tel-Test Inc. USA), and the separated RNA was quantified at 260 nm using a spectrometer, and then, 4 ug of RNA and Oligo dT 2 ul (Promega), DEPC water were added to make 10 ul and the mixture was reacted at 65 r for 5 minutes. […]

A further assay deals with IL-4. Put plainly: Murine asthma model: RT-PCR of lung tissue, IL-4. It counts as in vivo, mouse. To be noted: band density divided by actin density, 30 mg/kg oral. Here is the method:
as §1, §3, §4

The subject of the next assay is IL-13r2a. Description: Murine asthma model: RT-PCR of lung tissue, IL-13r2a. In kind it is in vivo, mouse. As to conditions: band density divided by actin density, 30 mg/kg oral. On the procedure:
as §1, §3, §4

In another assay the test system is peritoneal mast cell. Put plainly: Antihistamine activity, compound 48/80-induced histamine release from peritoneal mast cells of ovalbumin-sensitized rat. It counts as cell-based. To be noted: oral dosage 5 mg/kg. Here is the method: In order to measure antihistamine activity of Coptidis Rhizoma extract of Examples 1-1 to 1-3, experiment was conducted using Honuchi et al. method (Masako Honuchi and Yoshiyuki Seyama, J. Health Sci., 52(6), 711˜717, 2006., Naoki Inagaki et al. Biol. Pharm. Bull. 24(7), 829˜834, 2001.) in the following procedure.
Antihistamine effect was measured using peritoneal mast cell of a male rat (7-weeks age, Sam tako BioKorea) sensitized with ovalbumin As positive control, Ketotifen (Sigma) was used. To a rat sensitized with ovalbumin, Ketotifen was orally administered at a concentration of 5 mg/kg, and test drugs were orally administered respectively at a concentration of 200 mg/kg for 4 days, and then, peritoneal mast cells were separated. The separated peritoneal mast cells (2×10^5 cells/ml) were treated with Ketotifen at concentrations of 0.01 mg/ml, 0.1 mg/ml, and 1.0 mg/ml, and test drugs at concentrations of 0.1 mg/ml, 1.0 mg/ml, and 10 mg/ml. Finally, the mast cells were treated with compound 48/80 (Sigma) which activates non-immunological histamine release at a concentration of 10 μg/ml. At this time, the amount of histamine released from mast cells was quantified to examine whether the test materials suppress release of histamine from the mast cells. The relative amount of histamine released from mast cell in a rat to which no drug was administered was measured, of which results are presented in the following Table 5.
In order to measure antihistamine activities of 5 sub-fractions prepared in the above Example 1-4, the same experiment was conducted as the above Experiment 3-3, of which results are presented in the following Table 8.
In order to measure antihistamine effect of ivy leaf extract, and combined extract of Coptidis Rhizoma with ivy leaf (Examples 2-1 to 2-11) prepared in Example 2 in mast cell, experiment was conducted by the same method as described in [Experiment method] in Experiment 3-3 using Honuchi et al. method (Masako Honuchi and Yoshiyuki Seyama, J. Health Sci., 52(6), 711˜717, 2006., Naoki Inagaki et. Biol. Pharm. Bull. 24(7), 829˜834, 2001.), of which results are presented in the following Table 13.

SMILES strings stand for the structures. Where “and” joins values, the source holds several entries; their conditions need not be identical. Equal entries are not always repeated.

For `Cn1cnc2c1c(=O)[nH]c(=O)n2C` [Theobromine, theobromine], the “Capacity to suppress cough (%)” value in the assay with male guinea pig is 57% and 56%.

As for `COc1ccc2cc3[n+](cc2c1OC)CCc1cc2c(cc1-3)OCO2` [Berberine, berberine], the “Capacity to discharge sputum (%)” value in the assay on male mouse (oral 125 mg/kg) is given as 39%.

As to `Nc1c(Br)cc(Br)cc1CN[C@H]1CC[C@H](O)CC1` [Ambroxol, ambroxol], the “Capacity to discharge sputum (%)” value in the assay on male mouse (oral 250 mg/kg) is listed as 34%. Besides, the “Capacity to secrete sputum (%)” value in the assay with male mouse (oral 250 mg/kg, 250 mg/kg) is 32% and 30%.

`CC(C)(O)c1ccccc1CC[C@@H](SCC1(CC(=O)O)CC1)c1cccc(/C=C/c2ccc3ccc(Cl)cc3n2)c1` [montelukast, montelukast sodium]: the “Penh value according to methacholine dosage” value (“Penh value according” for short) in assay [1] (methacholine 0 mg/ml) amounted to 1.5 ± 0.2. In assay [1] (methacholine 10 mg/ml), the “Penh value according” value is listed as 8.4 ± 2.4. In addition, the “Penh value according” value in assay [1] (methacholine 20 mg/ml) is 19.8 ± 5.4. Further, in the assay with immunoglobulin E (IgE), the “IgE level” value stood at 13.7 ± 5.7 ng/mL. In addition, in [2], the “WBC EOS (eosinophil)” value is on record as 466.0 ± 207.0 ×10^3 cells and the “WBC NEU (neutrophil)” value is 22.3 ± 7.2 ×10^3 cells. Further, in the assay with pulmonary tissue, the “Microscope observation: Degree of infiltration of inflammatory cells” value came out at 3.7 ± 0.5 and the “Microscope observation: Degree of occlusion of bronchus” value is 3.5 ± 0.5. Further, the “Degree of cytokine expression IL-1β” value with IL-1β is 0.51 ± 0.26. For the same molecule, the “Degree of cytokine expression IL-4” value in the assay on IL-4 stood at 1.47 ± 0.48. The “Degree of cytokine expression IL-13r2a” value in the assay with IL-13r2a is on record as 0.37 ± 0.31.

As to `CN1CCC(=C2c3ccccc3CC(=O)c3sccc32)CC1` [Ketotifen], the “Histamine release amount (%)” value is 43% and 44% in the assay with peritoneal mast cell (mast cell treatment 0 mg/ml); 41% in the assay with peritoneal mast cell (mast cell treatment 0.01 mg/ml); 32% with peritoneal mast cell (mast cell treatment 0.1 mg/ml); 18% and 19% in the assay with peritoneal mast cell (mast cell treatment 1.0 mg/ml).
